Assay results taken from PubChem BioAssay AID1259407 (Chemical Carcinogenesis Research Information System (CCRIS), 2018).
Activity calls are given as the source filed them. How the calls were made is not given here.

Test system: CCRIS mutagenicity, Ames/micronucleus/aberration tests
Assay: CCRIS mutagenicity studies
[1] = Test System: AMES SALMONELLA TYPHIMURIUM, Strain/Indicator: TA98, Metabolic Activation: NONE, Method: STANDARD PLATE

Question: How did the mutagenic call (Test System: AMES SALMONELLA TYPHIMURIUM, Strain/Indicator: TA98, Metabolic Activation: RAT LIVER S-9, AROCLOR 1254 (10%), Method: STANDARD PLATE) turn out when `Nc1ccc2c(ccc3c4ccccc4ccc23)c1` was run?
Answer: active; positive

Question: What about the mutagenic call (Test System: AMES SALMONELLA TYPHIMURIUM, Strain/Indicator: TA98, Metabolic Activation: RAT, LIVER, CYTOSOL, AROCLOR 1254, Method: STANDARD PLATE) of the same molecule?
Answer: active; positive

Question: And the mutagenic call (Test System: AMES SALMONELLA TYPHIMURIUM, Strain/Indicator: TA98, Metabolic Activation: RAT, LIVER, MICROSOMES, AROCLOR 1254, Method: STANDARD PLATE)?
Answer: active; positive

Question: Which mutagenic call [1] does the source give for `c1ccc2c(c1)-c1ccccc1C1NC21` (centres undefined) here?
Answer: active; positive

Question: And the mutagenic call (Test System: AMES SALMONELLA TYPHIMURIUM, Strain/Indicator: TA1537, Metabolic Activation: NONE, Method: STANDARD PLATE)?
Answer: active; positive

Question: And the mutagenic call (Test System: CHINESE HAMSTER V-79, Strain/Indicator: V-79/6-THIOGUANINE, Metabolic Activation: NONE, Method: STANDARD PLATE)?
Answer: active; positive

Question: For `O=C(O)c1ccc(S(=O)(=O)N(Cl)Cl)cc1`, which mutagenic call (Test System: AMES SALMONELLA TYPHIMURIUM, Strain/Indicator: TA98, Metabolic Activation: HAMSTER, LIVER, S-9, AROCLOR 1254 (10%), Method: PREINCUBATION) is on record?
Answer: inactive; negative

Question: And the mutagenic call (Test System: AMES SALMONELLA TYPHIMURIUM, Strain/Indicator: TA98, Metabolic Activation: NONE, Method: PREINCUBATION)?
Answer: inactive; negative

Question: And the mutagenic call (Test System: AMES SALMONELLA TYPHIMURIUM, Strain/Indicator: TA98, Metabolic Activation: RAT, LIVER, S-9, AROCLOR 1254 (10%), Method: PREINCUBATION)?
Answer: inactive; negative

Question: And the mutagenic call (Test System: AMES SALMONELLA TYPHIMURIUM, Strain/Indicator: TA100, Metabolic Activation: HAMSTER, LIVER, S-9, AROCLOR 1254 (10%), Method: PREINCUBATION)?
Answer: inactive; negative

Question: And the mutagenic call (Test System: AMES SALMONELLA TYPHIMURIUM, Strain/Indicator: TA100, Metabolic Activation: NONE, Method: PREINCUBATION)?
Answer: inactive; negative

Question: What about the mutagenic call (Test System: AMES SALMONELLA TYPHIMURIUM, Strain/Indicator: TA100, Metabolic Activation: RAT, LIVER, S-9, AROCLOR 1254 (10%), Method: PREINCUBATION) of the same molecule?
Answer: inactive; negative

Question: What about the mutagenic call (Test System: AMES SALMONELLA TYPHIMURIUM, Strain/Indicator: TA1535, Metabolic Activation: HAMSTER, LIVER, S-9, AROCLOR 1254 (10%), Method: PREINCUBATION) of the same molecule?
Answer: inactive; negative

Question: And the mutagenic call (Test System: AMES SALMONELLA TYPHIMURIUM, Strain/Indicator: TA1535, Metabolic Activation: NONE, Method: PREINCUBATION)?
Answer: inactive; negative

Question: And the mutagenic call (Test System: AMES SALMONELLA TYPHIMURIUM, Strain/Indicator: TA1535, Metabolic Activation: RAT, LIVER, S-9, AROCLOR 1254 (10%), Method: PREINCUBATION)?
Answer: inactive; negative

Question: What about the mutagenic call (Test System: AMES SALMONELLA TYPHIMURIUM, Strain/Indicator: TA1537, Metabolic Activation: HAMSTER, LIVER, S-9, AROCLOR 1254 (10%), Method: PREINCUBATION) of the same molecule?
Answer: inactive; negative

Question: And the mutagenic call (Test System: AMES SALMONELLA TYPHIMURIUM, Strain/Indicator: TA1537, Metabolic Activation: NONE, Method: PREINCUBATION)?
Answer: inactive; negative

Question: And the mutagenic call (Test System: AMES SALMONELLA TYPHIMURIUM, Strain/Indicator: TA1537, Metabolic Activation: RAT, LIVER, S-9, AROCLOR 1254 (10%), Method: PREINCUBATION)?
Answer: inactive; negative

Question: With `C=CCCCCCCCCCCCCC` as the molecule, how does the mutagenic call (Test System: AMES SALMONELLA TYPHIMURIUM, Strain/Indicator: TA98, Metabolic Activation: MOUSE, LIVER, S-9, Method: STANDARD PLATE) read?
Answer: inactive; negative

Question: And the mutagenic call [1]?
Answer: inactive; negative

Question: And the mutagenic call (Test System: AMES SALMONELLA TYPHIMURIUM, Strain/Indicator: TA100, Metabolic Activation: MOUSE, LIVER, S-9, Method: STANDARD PLATE)?
Answer: inactive; negative

Question: What about the mutagenic call (Test System: AMES SALMONELLA TYPHIMURIUM, Strain/Indicator: TA100, Metabolic Activation: NONE, Method: STANDARD PLATE) of the same molecule?
Answer: inactive; negative

Question: What about the mutagenic call (Test System: AMES SALMONELLA TYPHIMURIUM, Strain/Indicator: TA1535, Metabolic Activation: NONE, Method: STANDARD PLATE) of the same molecule?
Answer: inactive; negative

Question: And the mutagenic call (Test System: AMES SALMONELLA TYPHIMURIUM, Strain/Indicator: TA1538, Metabolic Activation: NONE, Method: STANDARD PLATE)?
Answer: inactive; negative
